According to the supplement of paper PMC10307832:

Columns and labels:
Assay in all cases: relative viability (nuclei count vs DMSO), 5 days (fraction); higher = more cells survive
Erlotinib + Vorinostat = compound: C#Cc1cccc(Nc2ncnc3cc(OCCOC)c(OCCOC)cc23)c1 [Erlotinib] + O=C(CCCCCCC(=O)Nc1ccccc1)NO [Vorinostat] (partner 1 µM)
Summary of the method: (§1)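 Lung cancer cell lines in 1536-well plates got either a single drug or a fixed anchor-drug dose together with five library-drug doses (not always all listed) in √10 steps, by pin tool, on the day after seeding. Nuclei were counted after 5 days, and relative viability is the treated-to-vehicle ratio of nuclei counts. Values are medians of duplicate plates.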

Erlotinib + Phenformin = compound: C#Cc1cccc(Nc2ncnc3cc(OCCOC)c(OCCOC)cc23)c1 [Erlotinib] + N=C(N)NC(=N)NCCc1ccccc1 [Phenformin] (partner 250 µM)
Summary of the method: as §1

Erlotinib + Crizotinib = compound: C#Cc1cccc(Nc2ncnc3cc(OCCOC)c(OCCOC)cc23)c1 [Erlotinib] + C[C@@H](Oc1cc(-c2cnn(C3CCNCC3)c2)cnc1N)c1c(Cl)ccc(F)c1Cl [Crizotinib] (partner 1 µM)
Summary of the method: as §1

Erlotinib + AZD7762 = compound: C#Cc1cccc(Nc2ncnc3cc(OCCOC)c(OCCOC)cc23)c1 [Erlotinib] + NC(=O)Nc1cc(-c2cccc(F)c2)sc1C(=O)N[C@H]1CCCNC1 [AZD7762] (partner 0.2 µM)
Summary of the method: as §1

Erlotinib + Dasatinib = compound: C#Cc1cccc(Nc2ncnc3cc(OCCOC)c(OCCOC)cc23)c1 [Erlotinib] + Cc1nc(Nc2ncc(C(=O)Nc3c(C)cccc3Cl)s2)cc(N2CCN(CCO)CC2)n1 [Dasatinib] (partner 0.075 µM)
Summary of the method: as §1

Cell Line	relative viability (Erlotinib + Vorinostat; first compound 0.02 µM)	relative viability (Erlotinib + Vorinostat; first compound 0.2 µM)	relative viability (Erlotinib + Vorinostat; first compound 0.6325 µM)	relative viability (Erlotinib + Vorinostat; first compound 2 µM)	relative viability (Erlotinib + Phenformin; first compound 0.02 µM)	relative viability (Erlotinib + Phenformin; first compound 0.6325 µM)	relative viability (Erlotinib + Phenformin; first compound 2 µM)	relative viability (Erlotinib + Crizotinib; first compound 0.02 µM)	relative viability (Erlotinib + Crizotinib; first compound 0.2 µM)	relative viability (Erlotinib + Crizotinib; first compound 0.6325 µM)	relative viability (Erlotinib + Crizotinib; first compound 2 µM)	relative viability (Erlotinib + AZD7762; first compound 0.02 µM)	relative viability (Erlotinib + AZD7762; first compound 0.2 µM)	relative viability (Erlotinib + AZD7762; first compound 0.6325 µM)	relative viability (Erlotinib + AZD7762; first compound 2 µM)	relative viability (Erlotinib + Dasatinib; first compound 0.02 µM)	relative viability (Erlotinib + Dasatinib; first compound 0.6325 µM)	relative viability (Erlotinib + Dasatinib; first compound 2 µM)	relative viability (Erlotinib + Phenformin; first compound 0.2 µM)	relative viability (Erlotinib + Dasatinib; first compound 0.2 µM)
NCI-H727	1.29	1.24	1.03	1.01	0.572	0.639	0.404	0.736	0.725	0.574	0.552	0.455	0.488	0.437	0.463	0.308	0.295	0.322	–	–
NCI-H838	0.821	0.694	0.703	0.684	0.668	0.694	0.493	0.953	0.838	0.907	0.693	0.895	0.784	0.987	0.896	0.29	0.288	0.317	0.509	0.308
NCI-H1355	0.668	0.633	0.602	0.521	0.474	0.458	0.414	1.1	0.999	0.944	0.789	0.794	0.687	0.674	0.682	0.701	0.666	0.472	0.493	0.571
NCI-H1437	–	0.873	0.818	0.667	0.352	0.286	0.286	1.01	1.02	1.12	0.883	1.01	–	–	0.956	0.357	0.46	0.339	0.301	0.433
NCI-H1651	0.533	0.541	0.564	0.462	0.336	0.288	0.259	0.876	0.801	0.92	0.786	0.365	0.428	0.406	0.304	0.37	0.469	0.387	0.316	0.39
NCI-H1666	–	0.963	0.775	0.78	0.562	0.522	0.533	1.02	0.856	0.66	0.428	0.72	0.834	0.732	0.633	–	0.828	0.64	0.584	0.759
NCI-H1734	0.954	–	0.938	0.81	0.4	0.391	0.359	0.644	0.653	0.753	0.654	0.579	0.513	0.607	0.507	0.574	0.473	0.428	0.378	0.482
NCI-H1755	0.827	0.762	0.772	0.716	0.614	0.642	0.582	0.889	0.888	0.904	–	0.487	0.438	0.499	0.379	0.451	0.386	0.433	–	0.409
NCI-H1915	0.536	0.529	0.508	0.485	0.398	0.383	0.35	0.948	0.832	0.919	0.86	0.72	0.675	–	0.659	0.338	0.327	0.273	0.378	0.376
NCI-H1944	0.497	0.388	0.48	0.35	0.199	0.198	0.172	0.964	0.701	0.844	0.626	0.541	0.419	0.538	0.387	0.213	0.237	0.21	0.194	0.219
NCI-H1975	0.722	0.726	0.701	0.58	0.415	0.405	0.38	0.947	0.96	1.04	0.694	0.704	0.682	0.605	0.495	0.391	0.372	0.205	0.377	0.407
NCI-H1993	0.811	0.724	0.633	0.461	0.564	0.573	0.549	0.816	0.646	0.854	0.713	0.732	0.555	0.566	0.535	0.579	0.553	0.586	0.59	0.531
NCI-H2085	0.78	0.649	0.724	0.535	0.762	0.528	0.472	0.794	0.835	0.739	0.57	0.92	–	0.732	0.454	0.235	0.266	0.249	0.493	0.2
NCI-H2087	0.778	0.788	0.765	0.434	0.516	0.506	0.304	0.882	1.06	0.871	0.849	1.4	1.33	1.29	1.17	0.799	0.923	0.735	0.483	0.821
NCI-H2126	0.688	0.529	0.438	0.416	0.534	0.489	0.41	1.04	0.892	0.776	0.662	1.03	1.01	0.892	0.688	0.595	0.444	0.374	0.464	0.435
NCI-H2170	0.787	0.855	0.832	0.501	0.422	0.386	0.324	1.17	1.06	1.1	0.569	0.862	0.737	0.54	0.35	0.554	0.434	0.272	0.463	0.548
NCI-H2347	0.628	0.717	0.625	0.552	0.511	0.326	0.326	0.678	0.595	0.723	0.646	0.689	0.856	0.783	0.655	0.371	0.289	0.296	–	0.309
